According to patent publication US12403121B2, “Anticancer rocaglamide derivatives” (priority 2018, dated 2025):

Assays:
[1] = system: rhabdomyosarcoma PDX; assay: Alveolar rhabdomyosarcoma PDX model (NCH-ARMS-2); assay type: in vivo, NSG mouse; conditions: 3 mg/kg IP every other day
Excerpt: To generate PDX models, the Nationwide Children's Hospital Institutional Review Board approved the Human Subjects Protocol for the acquisition of surgically-removed tumor specimens from patients and informed patient consents were obtained. Shortly after resection, fresh tumor tissues with their histological types confirmed by a specialized pathologist were placed in Dulbecco's-modified Eagle (DME) medium (Invitrogen) and brought to the research laboratory. A piece of tumor fragment was implanted subcutaneously on the dorsal right flank area in an eight-to-ten week-old immunodeficient mouse under anesthesia. Tumors were allowed to grow until established, at which time the established PDX tumors were repeatedly passed from one animal to the next or cryopreserved. For Roc treatment, actively-growing PDXs for a Ewing sarcoma (NCH-EWS-2), an osteosarcoma (NCH—OS-7), and an alveolar rhabdomyosarcoma (NCH-ARMS-2) were excised and cut into 5-mm pieces. Each tumor piece was re-implanted into an NSG mouse and tumor growth was monitored. Once noted, the tumor sizes in the axial plane at its greatest dimension (L) and the orthogonal short dimension (S) were measured twice weekly using a Fowler Ultra-Cal Electronic Caliper. Approximated tumor volumes were calculated using the formula V=(L×S^2)/2. […]

[2] = system: panel of MPNST, schwannoma, and meningioma cell lines; assay: Side-by-side growth inhibition comparison with silvestrol in a cell line panel; assay type: cell-based; conditions: panel of MPNST, schwannoma, meningioma cell lines
Experimental: (§1) Actively-growing cells were seeded in 96-well plates (Sarstedt) at 2,000 cells/well for Ben-Men-1 and RD cells, 30,000 cells/well for 697 and 697-R cells, and 4,000 cells/well for all other cell lines. The following day, cells were treated with various concentrations of each compound or and 0.05% of DMSO as the control for six days for MG-63 cells or three days for all remaining cell lines. Cell proliferation was assessed using resazurin assays and the IC50 value calculated. Cell cycle analysis was performed accordingly. Burns et al., Cancer Res., 73:792-803 (2013).
To search for compounds with better drug-like properties, the inventors conducted a side-by-side comparison of ten rocaglates lacking the dioxanyl ring with silvestrol for growth-inhibitory activity in a panel of MPNST, schwannoma, and meningioma cell lines, which they had previously shown to be sensitive to the antiproliferative action of silvestrol. […] The average IC50 value of each rocaglate was determined by 3-day resazurin proliferation assays. […] Further structure and activity comparison discerned some positions on the cyclopenta[b]benzofuran scaffold that affected the antiproliferative activity of rocaglates.

[3] = system: A673, TC32, 143B, MG-63, Saos2, OS17 and RD sarcoma cell lines; assay: Cell proliferation in Ewing sarcoma, osteosarcoma and rhabdomyosarcoma cell lines; assay type: cell-based; conditions: two Ewing sarcoma, four osteosarcoma, one rhabdomyosarcoma cell lines
Experimental: The human MPNST cell lines, ST8814, STS26T, S462, T265, and luciferase-expressing ST8814-Luc, the human NF2-deficient meningioma cell line Ben-Men-1, the NJ2 mouse schwannoma cell line Sch10545, and primary human Schwann cells were propagated as previously described. Oblinger et al., Neuro-Oncol., 18:1265-1277 (2016). The Ewing sarcoma cell line A673 and the osteosarcoma cell lines, 143B and MG-63, were grown in Dulbecco's Modified Eagle's (DME) medium (Millipore-Sigma) supplemented with 10% fetal bovine serum (FBS; Atlanta Biological). The silvestrol-sensitive 697 and silvestrol-resistant 697-R pre-B acute lymphoblastic leukemia cells (Gupta et al., AAPS J., 13:357-364 (2011)), the Ewing sarcoma cell line TC32, the osteosarcoma cell lines, Saos2 and OS17, and the rhabdomyosarcoma cell line RD were cultivated in RPMI 1640 medium (Millipore-Sigma) plus 10% FBS.
as §1
Since MPNSTs comprise only ˜2% of all sarcomas (Farid et al. Oncologist, 19:193-201 (2014)), the inventors expanded their testing of Roc and DDR to three other more prevalent sarcomas particularly in children and young adults: Ewing sarcoma, osteosarcoma, and rhabdomyosarcoma.

[4] = system: STS26T and ST8814 MPNST cells; assay: Flow cytometry cell cycle analysis; assay type: cell-based, human; conditions: one- or two-IC50 doses, three days
Experimental: as §1

[5] = Kinghorn et al. 2016 and NCI Developmental Therapeutics Program study, same conditions; cited from earlier work
[6] = Maximum tolerated dose of Roc in mice; assay type: in vivo; conditions: every other day

COc1ccc([C@@]23Oc4cc(OC)cc(OC)c4[C@]2(O)[C@H](O)[C@H](C(=O)N(C)C)[C@H]3c2ccccc2)cc1 [Roc, rocaglamide]
reduction of tumor growth [1]: ~70% | IC50 values relative to silvestrol [2]: slightly higher than silvestrol | activity against sarcoma cell lines [3]: highly active | G2/M fraction [4]: marked increase in the GVM fraction | pulmonary toxicity in dogs [5]: did not induce the toxicity | maximum tolerated dose (MTD) ([6]; IP): 4 mg/kg | maximum tolerated dose (MTD) ([6]; oral gavage): 1.2 mg/kg
